Laboratory results as given in patent US9901592B2 (priority 2008, dated 2018).
Values after ≈ are worked out from the molar mass of the structure shown. Read-outs that look alike come from different tables or passages of the source.

Assays:
[1] = tested on: S. pneumoniae; assay: microbe, parasite or virus in culture; assay type: cell-based; conditions: for MIC: Streptococcus pneumoniae
[2] = tested on: M. genitalium; assay type: cell-based; conditions: M. genitalium (5 isolates)
[3] = tested on: streptococci; assay: organism not typed; assay type: cell-based
[4] = tested on: S. pyogenes 3029; assay: Intraperitoneal (IP) mouse infection model (ED50); assay type: in vivo; conditions: Streptococcus pyogenes, MAC-R S. pyogenes 3029
[5] = tested on: intraphagocytic L. pneumophila ATCC 33153 (THP-1); assay type: cell-based
[6] = tested on: U. urealyticum; assay: MIC testing in 10B broth (colour change); assay type: cell-based; conditions: U. urealyticum (10 isolates)
[7] = tested on: S. pyogenes; assay: microbe, parasite or virus in culture; assay type: cell-based; conditions: for MIC: Streptococcus pyogenes
[8] = tested on: M. hominis; assay type: cell-based; conditions: M. hominis (13 isolates)
[9] = tested on: pneumococci; assay: microbe, parasite or virus in culture; assay type: cell-based, S. pneumoniae; conditions: Streptococcus pneumoniae, pneumococci, L4 mutations (27)
[10] = tested on: M. pneumoniae; assay: microbe, parasite or virus in culture; assay type: cell-based; conditions: Mycoplasmoides pneumoniae
[11] = tested on: M. catarrhalis; assay: microbe, parasite or virus in culture; assay type: cell-based; conditions: Moraxella catarrhalis

For `CC[C@H]1OC(=O)[C@H](C)[C@@H](O[C@H]2C[C@@](C)(OC)[C@@H](O)[C@H](C)O2)[C@H](C)[C@@H](O[C@@H]2O[C@H](C)C[C@H](N(C)C)[C@H]2O)[C@](C)(O)C[C@@H](C)CN(C)[C@H](C)[C@@H](O)[C@]1(C)O` [AZI, azithromycin], the “strains with resistant clones / strains tested” value ([1]; S. pneumoniae) was 3/4, the MIC ([1]; read-out: Initial MIC, strain 1077 Macrolide-S, parent) was 0.03 µg/mL (≈ 0.0401 µM) and the MIC ([1]; read-out: Initial MIC, strain 1635 Macrolide-R [erm(A)], parent) was 2 µg/mL (≈ 2.67 µM). For the same molecule, the MIC ([1]; read-out: Initial MIC, strain 3665 Macrolide-R [mef(A)], parent) was 8 µg/mL (≈ 10.7 µM), the MIC ([1]; read-out: Initial MIC, strain 7127 Macrolide-S [S20N in L4, A105V in L22], parent) was 0.06 µg/mL (≈ 0.0801 µM) and the MIC ([1]; read-out: MIC of parents of resistant clones, S. pneumoniae (CEM-101: 7 strains)) was 0.03 to 2 µg/mL. It also gave an MIC ([1]; read-out: Parental MICs, S. pneumoniae, 8 strains with varying resistotypes) of 0.03 to 8 µg/mL (≈ 0.0401 to 10.7 µM), an MIC ([1]; read-out: Selected Resistance MIC, strain 3665 Macrolide-R [mef(A)], after serial passages in the drug) of 16 µg/mL (≈ 21.4 µM) and an MIC ([1]; read-out: Selected Resistance MIC, strain 7127 Macrolide-S [S20N in L4, A105V in L22], after serial passages in the drug) of 0.5 µg/mL (≈ 0.668 µM). For the same molecule, the “days until resistant clones (MIC increase)” value ([1]; daily passages, min. 14, max. 50) was 14 to 29 days, the “Retest MIC after 10 Antibiotic-free Subcultures” value ([1]; strain 24 Macrolide-R [erm(B)], clone selected with CEM-101) was >64 µg/mL and the “Retest MIC after 10 Antibiotic-free Subcultures” value ([1]; strain 24 Macrolide-R [erm(B)], clone selected with TEL) was >64 µg/mL. For the same molecule, the “Retest MIC after 10 Antibiotic-free Subcultures” value ([1]; strain 1076 Macrolide-R [erm(B)&mef(A)], clone selected with CEM-101) was >64 µg/mL, the “Retest MIC after 10 Antibiotic-free Subcultures” value ([1]; strain 1076 Macrolide-R [erm(B)&mef(A)], clone selected with TEL) was >64 µg/mL and the “Retest MIC after 10 Antibiotic-free Subcultures” value ([1]; strain 1077 Macrolide-S, clone selected with AZI) was >64 µg/mL. For the same molecule, the “Retest MIC after 10 Antibiotic-free Subcultures” value ([1]; strain 1077 Macrolide-S, clone selected with CEM-101) was 0.03 µg/mL, the “Retest MIC after 10 Antibiotic-free Subcultures” value ([1]; strain 1077 Macrolide-S, clone selected with CLN) was >64 µg/mL and the “Retest MIC after 10 Antibiotic-free Subcultures” value ([1]; strain 1077 Macrolide-S, clone selected with TEL) was >64 µg/mL. The “Retest MIC after 10 Antibiotic-free Subcultures” value ([1]; strain 1635 Macrolide-R [erm(A)], clone selected with AZI) was >64 µg/mL, the “Retest MIC after 10 Antibiotic-free Subcultures” value ([1]; strain 1635 Macrolide-R [erm(A)], clone selected with CEM-101) was 4 µg/mL and the “Retest MIC after 10 Antibiotic-free Subcultures” value ([1]; strain 1635 Macrolide-R [erm(A)], clone selected with CLN) was 4 µg/mL. For the same molecule, the “Retest MIC after 10 Antibiotic-free Subcultures” value ([1]; strain 1635 Macrolide-R [erm(A)], clone selected with CLR) was >64 µg/mL, the “Retest MIC after 10 Antibiotic-free Subcultures” value ([1]; strain 2686 Macrolide-R [L4 mutation], clone selected with CEM-101) was >64 µg/mL and the “Retest MIC after 10 Antibiotic-free Subcultures” value ([1]; strain 2686 Macrolide-R [L4 mutation], clone selected with CLR) was >64 µg/mL. For the same molecule, the “Retest MIC after 10 Antibiotic-free Subcultures” value ([1]; strain 2686 Macrolide-R [L4 mutation], clone selected with TEL) was >64 µg/mL, the “Retest MIC after 10 Antibiotic-free Subcultures” value ([1]; strain 3009 Macrolide-R [23SrRNA mutation], clone selected with CEM-101) was >64 µg/mL and the “Retest MIC after 10 Antibiotic-free Subcultures” value ([1]; strain 3009 Macrolide-R [23SrRNA mutation], clone selected with CLR) was >64 µg/mL. The “Retest MIC after 10 Antibiotic-free Subcultures” value ([1]; strain 3665 Macrolide-R [mef(A)], clone selected with CEM-101) was 16 µg/mL, the “Retest MIC after 10 Antibiotic-free Subcultures” value ([1]; strain 3665 Macrolide-R [mef(A)], clone selected with CLR) was 8 µg/mL and the “Retest MIC after 10 Antibiotic-free Subcultures” value ([1]; strain 3665 Macrolide-R [mef(A)], clone selected with TEL) was 4 µg/mL. For the same molecule, the “Retest MIC after 10 Antibiotic-free Subcultures” value ([1]; strain 7127 Macrolide-S [S20N in L4, A105V in L22], clone selected with AZI) was 1 µg/mL, the “Retest MIC after 10 Antibiotic-free Subcultures” value ([1]; strain 7127 Macrolide-S [S20N in L4, A105V in L22], clone selected with CEM-101) was 0.06 µg/mL and the “Retest MIC after 10 Antibiotic-free Subcultures” value ([1]; strain 7127 Macrolide-S [S20N in L4, A105V in L22], clone selected with CLN) was 0.03 µg/mL. For the same molecule, the “Retest MIC after 10 Antibiotic-free Subcultures” value ([1]; strain 7127 Macrolide-S [S20N in L4, A105V in L22], clone selected with CLR) was >64 µg/mL, the “Retest MIC after 10 Antibiotic-free Subcultures” value ([1]; strain 7127 Macrolide-S [S20N in L4, A105V in L22], clone selected with TEL) was 0.06 µg/mL and the “MIC Range” value [2] was “≦0.000032-0.005 μg/mL”. For the same molecule, the MIC50 [3] was 0.06 µg/mL (≈ 0.0801 µM), the MIC90 [3] was 0.12 µg/mL (≈ 0.16 µM) and the “MIC Range” value [3] was “≦0.008-0.5 μg/ml”. The ED50 [4] was > 150 mg/kg, the Cs ([5]; L. pneumophila ATCC 33153, 48 h) was 181 ×MIC and the “Cs, static concentration” value ([5]; intracellular L. pneumophila ATCC 33153) was 2.90 mg/L. For the same molecule, the “MIC Range” value [6] was 0.5 to 4 µg/mL, the MIC50 ([6]; Ureaplasma urealyticum) was 2 µg/mL (≈ 2.67 µM) and the MIC90 ([6]; Ureaplasma urealyticum) was 4 µg/mL (≈ 5.34 µM). For the same molecule, the “strains with resistant clones / strains tested” value ([7]; S. pyogenes) was 3/4, the MIC ([7]; read-out: Initial MIC, strain 237 Macrolide-R [LA mutation], parent) was 4 µg/mL (≈ 5.34 µM) and the MIC ([7]; read-out: Initial MIC, strain 2011 Macrolide-R [mef(A)], parent) was 4 µg/mL (≈ 5.34 µM). The MIC ([7]; read-out: Initial MIC, strain 2094 Macrolide-R [erm(A)], parent) was 4 µg/mL (≈ 5.34 µM), the MIC ([7]; read-out: Initial MIC, strain 2132 Macrolide-S, parent) was 0.06 µg/mL (≈ 0.0801 µM) and the MIC ([7]; read-out: Initial MIC, strain 2368 Macrolide-R [erm(B)], parent) was > 64 µg/mL. For the same molecule, the MIC ([7]; read-out: MIC of parents of resistant clones, S. pyogenes) was 0.06 to 4 µg/mL, the MIC ([7]; read-out: Parental MICs, S. pyogenes, 5 strains with varying resistotypes) was 0.06 to 4 µg/mL (≈ 0.0801 to 5.34 µM) and the MIC ([7]; read-out: Selected Resistance (MIC), strain 237 Macrolide-R [LA mutation], after serial passages in the drug) was 8 µg/mL (≈ 10.7 µM). The MIC ([7]; read-out: Selected Resistance (MIC), strain 2011 Macrolide-R [mef(A)], after serial passages in the drug) was 32 µg/mL (≈ 42.7 µM), the MIC ([7]; read-out: Selected Resistance (MIC), strain 2094 Macrolide-R [erm(A)], after serial passages in the drug) was > 64 µg/mL and the MIC ([7]; read-out: Selected Resistance (MIC), strain 2132 Macrolide-S, after serial passages in the drug) was 1 µg/mL (≈ 1.34 µM). For the same molecule, the “days until resistant clones (MIC increase)” value ([7]; daily passages, max. 50) was 5 to 35 days, the “Retest MIC after 10 Antibioticfree Subcultures” value ([7]; strain 237 Macrolide-R [LA mutation], clone selected with CEM-101) was 4 µg/mL and the “Retest MIC after 10 Antibioticfree Subcultures” value ([7]; strain 237 Macrolide-R [LA mutation], clone selected with CLN) was 8 µg/mL. For the same molecule, the “Retest MIC after 10 Antibioticfree Subcultures” value ([7]; strain 2011 Macrolide-R [mef(A)], clone selected with AZI) was 16 µg/mL, the “Retest MIC after 10 Antibioticfree Subcultures” value ([7]; strain 2094 Macrolide-R [erm(A)], clone selected with AZI) was >64 µg/mL and the “Retest MIC after 10 Antibioticfree Subcultures” value ([7]; strain 2094 Macrolide-R [erm(A)], clone selected with CEM-101) was 4 µg/mL. The “Retest MIC after 10 Antibioticfree Subcultures” value ([7]; strain 2094 Macrolide-R [erm(A)], clone selected with CLN) was 16 µg/mL, the “Retest MIC after 10 Antibioticfree Subcultures” value ([7]; strain 2094 Macrolide-R [erm(A)], clone selected with CLR) was >64 µg/mL and the “Retest MIC after 10 Antibioticfree Subcultures” value ([7]; strain 2094 Macrolide-R [erm(A)], clone selected with TEL) was >64 µg/mL. The “Retest MIC after 10 Antibioticfree Subcultures” value ([7]; strain 2132 Macrolide-S, clone selected with AZI) was 1 µg/mL, the “Retest MIC after 10 Antibioticfree Subcultures” value ([7]; strain 2368 Macrolide-R [erm(B)], clone selected with CEM-101) was >64 µg/mL and the “Retest MIC after 10 Antibioticfree Subcultures” value ([7]; strain 2368 Macrolide-R [erm(B)], clone selected with TEL) was >64 µg/mL. The “MIC Range” value [8] was 0.5 to 4 µg/mL, the MIC50 [9] was > 64 µg/mL and the MIC90 [9] was > 64 µg/mL. It also gave an MIC50 [10] of 0.00025 µg/mL (≈ 0.000334 µM), an MIC90 [10] of 0.0005 µg/mL (≈ 0.000668 µM) and an MIC90 [11] of 0.06 µg/mL (≈ 0.0801 µM).
